Numbered stars: 1 amine (or outer) side, 2 acyl side, 3 side chain; on linkers, the order of the positions; unused ones are H or OH. Square brackets hold non-standard residues; d marks the D form. Peptide text beside a SMILES is read from it. * marks the point of attachment. Propanoyl(3-indol-3-yl) = O=C(CCc1c[nH]c2ccccc12)*; Indole2carbonyl(5-F) = O=C(c1cc2cc(F)ccc2[nH]1)*; Phenylacetyl(4-CF3) = O=C(Cc1ccc(C(F)(F)F)cc1)*; Propanoyl(3-(4-F-phenyl)) = O=C(CCc1ccc(F)cc1)*; Propanoyl(3-(4-MeO-Ph)) = COc1ccc(CCC(=O)*)cc1; Propanoyl(3-(4-Cl-Ph)) = O=C(CCc1ccc(Cl)cc1)*; Phenylacetyl(4-Cl) = O=C(Cc1ccc(Cl)cc1)*; Desaminotyrosyl = O=C(CCc1ccc(O)cc1)*; d2Nal = N[C@H](Cc1ccc2ccccc2c1)C(=O)O; X16 = O=C(c1cc2ccccc2[nH]1)*; Morpholide = C1CN(*)CCO1; X15 = O=C(Cc1ccc(O)cc1)*; CO = O=C([*:1])[*:2]
Biological target: T1, LHRH receptors (Rattus norvegicus, UniProt P30969)
T1 construct: Pituitary membranes containing LHRH receptors are prepared in batches from quick-frozen rat pituitaries; tissue Hilltop Labs; host or cells: rat pituitary membranes
T1 sequence (P30969 1-327): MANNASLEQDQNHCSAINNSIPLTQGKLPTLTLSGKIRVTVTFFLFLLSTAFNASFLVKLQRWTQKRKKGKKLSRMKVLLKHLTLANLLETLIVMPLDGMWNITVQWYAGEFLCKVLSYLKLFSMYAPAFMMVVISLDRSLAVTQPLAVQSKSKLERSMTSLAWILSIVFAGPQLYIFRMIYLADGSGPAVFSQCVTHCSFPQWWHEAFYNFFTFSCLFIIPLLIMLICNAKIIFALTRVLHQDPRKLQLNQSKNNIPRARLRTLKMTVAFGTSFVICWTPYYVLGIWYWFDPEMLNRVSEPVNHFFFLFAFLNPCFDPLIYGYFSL
Experiment: Receptor Binding (radioligand receptor binding assay)
Conditions: table 3; rat pituitary membranes, radioiodinated [D-Leu^6 -des Gly^10 ]-LHRH ethyl amide 50 pM, 2 hours at 4° C.; read-out: Receptor Binding pkI (converted)

Row | SMILES | Ki
1 | CCNC(=O)[C@@H]1CCCN1C(=O)[C@H](CCCNC(=N)N)NC(=O)[C@H](CC(C)C)NC(=O)[C@@H](Cc1ccc(O)cc1)NC(=O)[C@H](Cc1ccc(O)cc1)NC(=O)[C@H](CO)NC(=O)[C@@H](Cc1ccc(O)cc1)NC(=O)CCc1ccc(F)cc1 [Compound 93, (3-9)[N-(3-(4-Fluorophenyl)propionyl) -D-Tyr^3,6 -Pro^9 NHEt]LHRH] ({Propanoyl(3-(4-F-phenyl))}-[dY]SY[dY]LRP-NHEt) | 0.0158 nM
2 | CCNC(=O)[C@@H]1CCCN1C(=O)[C@H](CCCNC(=N)N)NC(=O)[C@H](CC(C)C)NC(=O)[C@@H](Cc1ccc2ccccc2c1)NC(=O)[C@H](Cc1ccc(O)cc1)NC(=O)[C@H](CO)NC(=O)[C@@H](Cc1c[nH]c2ccccc12)NC(=O)CCc1ccc(F)cc1 [Compound 94, (3-9)[N-(3-(4-Fluorophenyl)propionyl) -D-Trp^3 -D-2-Nal^6 -Pro^9 NHEt]LHRH] ({Propanoyl(3-(4-F-phenyl))}-[dW]SY[d2Nal]LRP-NHEt) | 0.309 nM
3 | CCNC(=O)[C@@H]1CCCN1C(=O)[C@H](CCCNC(=N)N)NC(=O)[C@H](CC(C)C)NC(=O)[C@@H](Cc1c[nH]c2ccccc12)NC(=O)[C@H](Cc1ccc(O)cc1)NC(=O)[C@H](CO)NC(=O)[C@H](Cc1c[nH]c2ccccc12)NC(=O)CCc1ccc(OC)cc1 [Compound 95, (3-9)[N-(3-(4-Methoxyphenyl)propionyl) -Trp^3 -D-Trp^6 -Pro^9 NHEt]LHRH] ({Propanoyl(3-(4-MeO-Ph))}-WSY[dW]LRP-NHEt) | 0.0776 nM
4 | CCNC(=O)[C@@H]1CCCN1C(=O)[C@H](CCCNC(=N)N)NC(=O)[C@H](CC(C)C)NC(=O)[C@@H](Cc1c[nH]c2ccccc12)NC(=O)[C@H](Cc1ccc(O)cc1)NC(=O)[C@H](CO)NC(=O)[C@H](Cc1c[nH]c2ccccc12)NC(=O)CCc1ccc(F)cc1 [Compound 97, (3-9)[N-(3-(4-Fluorophenyl)propionyl) -Trp^3 -D-Trp^6 -Pro^9 NHEt]LHRH] ({Propanoyl(3-(4-F-phenyl))}-WSY[dW]LRP-NHEt) | 0.0331 nM
5 | CCNC(=O)[C@@H]1CCCN1C(=O)[C@H](CCCNC(=N)N)NC(=O)[C@H](CC(C)C)NC(=O)[C@@H](Cc1c[nH]c2ccccc12)NC(=O)[C@H](Cc1ccc(O)cc1)NC(=O)[C@H](CO)NC(=O)[C@H](Cc1c[nH]c2ccccc12)NC(=O)CCc1ccc(Cl)cc1 [Compound 98, (3-9)[N-(3-(4-Chlorophenyl)propionyl) -Trp^3 -D-Trp^6 -Pro^9 NHEt]LHRH] ({Propanoyl(3-(4-Cl-Ph))}-WSY[dW]LRP-NHEt) | 0.0525 nM
6 | CCNC(=O)[C@@H]1CCCN1C(=O)[C@H](CCCN=C(N)N)NC(=O)[C@H](CC(C)C)NC(=O)[C@@H](Cc1c[nH]c2ccccc12)NC(=O)[C@H](Cc1ccc(O)cc1)NC(=O)[C@H](CO)NC(=O)[C@H](Cc1c[nH]c2ccccc12)NC(=O)CCc1ccc(O)cc1 [Compound 99, (3-9)[N-(3-(4-Hydroxyphenyl)propionyl) -Trp^3 -D-Trp^6 -Pro^9 NHEt]LHRH] (Desaminotyrosyl-WSY[dW]LRP-NHEt) | 0.0832 nM
7 | CCNC(=O)[C@@H]1CCCN1C(=O)[C@H](CCCN=C(N)N)NC(=O)[C@H](CC(C)C)NC(=O)[C@@H](Cc1c[nH]c2ccccc12)NC(=O)[C@H](Cc1ccc(O)cc1)NC(=O)[C@@H]1CCCN1C(=O)[C@@H](Cc1c[nH]c2ccccc12)NC(=O)CCc1ccc(F)cc1 [Compound 100, (3-9)[N-(3-(4-Fluorophenyl)propionyl)-D -Trp^3,6 -Pro^4,9 NHEt]LHRH] ({Propanoyl(3-(4-F-phenyl))}-[dW]PY[dW]LRP-NHEt) | 2.88 nM
8 | CCNC(=O)[C@@H]1CCCN1C(=O)[C@H](CCCN=C(N)N)NC(=O)[C@H](CC(C)C)NC(=O)[C@@H](Cc1c[nH]c2ccccc12)NC(=O)[C@H](Cc1ccc(O)cc1)NC(=O)[C@H](CO)NC(=O)[C@H](Cc1c[nH]c2ccccc12)NC(=O)c1cc2ccccc2[nH]1 [Compound 101, (3-9)[N-(2-Indolecarbonyl)-Trp^3 -D-Trp^6 -Pro^9 NHEt]LHRH] (X16-WSY[dW]LRP-NHEt) | 12.6 nM
9 | CCNC(=O)[C@@H]1CCCN1C(=O)[C@H](CCCNC(=N)N)NC(=O)[C@H](CC(C)C)NC(=O)[C@@H](Cc1c[nH]c2ccccc12)NC(=O)[C@H](Cc1ccc(O)cc1)NC(=O)[C@H](CO)NC(=O)[C@@H](Cc1c[nH]c2ccccc12)NC(=O)c1cc2cc(F)ccc2[nH]1 [Compound 102, (3-9)[N-(5-Fluoro-2-indolecarbonyl)-D -Trp^3,6 -Pro^9 -NHEt]LHRH] ({Indole2carbonyl(5-F)}-[dW]SY[dW]LRP-NHEt) | 17.4 nM
10 | CCNC(=O)[C@@H]1CCCN1C(=O)[C@H](CCCNC(=N)N)NC(=O)[C@H](CC(C)C)NC(=O)[C@@H](Cc1c[nH]c2ccccc12)NC(=O)[C@H](Cc1ccc(O)cc1)NC(=O)[C@H](CO)NC(=O)[C@@H](Cc1c[nH]c2ccccc12)NC(=O)CCc1c[nH]c2ccccc12 [Compound 103, (3-9)[N-(3-Indolepropionyl)-D-Trp^3,6 -Pro^9 -NHEt]LHRH] ({Propanoyl(3-indol-3-yl)}-[dW]SY[dW]LRP-NHEt) | 0.0794 nM
11 | CCNC(=O)[C@@H]1CCCN1C(=O)[C@H](CCCNC(=N)N)NC(=O)[C@H](CC(C)C)NC(=O)[C@@H](Cc1c[nH]c2ccccc12)NC(=O)[C@H](Cc1ccc(O)cc1)NC(=O)[C@H](CO)NC(=O)[C@H](Cc1c[nH]c2ccccc12)NC(=O)Cc1ccc(Cl)cc1 [Compound 104, (3-9)[N-(4-Chlorophenyl)acetyl-Trp^3 -D-Trp^6 -Pro^9 NHEt]LHRH] ({Phenylacetyl(4-Cl)}-WSY[dW]LRP-NHEt) | 0.832 nM
12 | CCNC(=O)[C@@H]1CCCN1C(=O)[C@H](CCCN=C(N)N)NC(=O)[C@H](CC(C)C)NC(=O)[C@@H](Cc1c[nH]c2ccccc12)NC(=O)[C@H](Cc1ccc(O)cc1)NC(=O)[C@H](CO)NC(=O)[C@H](Cc1c[nH]c2ccccc12)NC(=O)Cc1ccc(O)cc1 [Compound 105, (3-9)[N-(4-Hydroxyphenyl)acetyl-Trp^3 -D -Trp^6 -Pro^9 NHEt]LHRH] (X15-WSY[dW]LRP-NHEt) | 0.562 nM
13 | CCNC(=O)[C@@H]1CCCN1C(=O)[C@H](CCCNC(=N)N)NC(=O)[C@H](CC(C)C)NC(=O)[C@H](Cc1c[nH]c2ccccc12)NC(=O)[C@H](Cc1ccc(O)cc1)NC(=O)[C@H](CO)NC(=O)[C@H](Cc1c[nH]c2ccccc12)NC(=O)Cc1ccc(C(F)(F)F)cc1 [Compound 106, (3-9)[N-(4-Trifluoromethylphenyl)acetyl -Trp^3,6 -Pro^9 NHEt]LHRH] ({Phenylacetyl(4-CF3)}-WSYWLRP-NHEt) | 0.851 nM
14 | CCNC(=O)[C@@H]1CCCN1C(=O)[C@H](CCCNC(=N)N)NC(=O)[C@H](CC(C)C)NC(=O)[C@@H](Cc1c[nH]c2ccccc12)NC(=O)[C@H](Cc1ccc(O)cc1)NC(=O)[C@H](CO)NC(=O)[C@@H](Cc1c[nH]c2ccccc12)NC(=O)[C@H](Cc1ccccc1)NC(=O)N1CCOCC1 [Compound 107, (2 9)[N-(N-alpha-Morpholinocarbonyl)-Phe^2 -D-Trp^3,6 -Pro^9 NHEt]LHRH] ({Morpholide-CO}-F[dW]SY[dW]LRP-NHEt) | 0.257 nM
15 | CCNC(=O)[C@@H]1CCCN1C(=O)[C@H](CCCNC(=N)N)NC(=O)[C@H](CC(C)C)NC(=O)[C@@H](Cc1c[nH]c2ccccc12)NC(=O)[C@H](Cc1ccc(O)cc1)NC(=O)[C@H](CO)NC(=O)[C@@H](Cc1ccc(O)cc1)NC(=O)[C@H](Cc1ccccc1)NC(=O)N1CCOCC1 [Compound 108, (2-9)[N-(N-alpha-Morpholinocarbonyl)-Phe^2 -D-Tyr^3 -D-Trp^6 -Pro^9 NHEt]LHRH] ({Morpholide-CO}-F[dY]SY[dW]LRP-NHEt) | 0.182 nM
